Reference: paper PMC4454674, “Functional Coupling of Duplex Translocation to DNA Cleavage in a Type I Restriction Enzyme” (PLoS ONE, 2015)

Target: T1, EcoR124I (HsdR reconstituted with HsdS-HsdM2 methylase) (Escherichia coli, UniProt P10486)
T1 construct: holoenzyme reconstituted from purified HsdR (pTrcR124) and EcoR124I methylase HsdS-HsdM2 (pJS4M, JM109(DE3)), on plasmid DNA with one site; with Type I restriction enzyme EcoR124I/EcoR124II methylase subunit; Type I restriction enzyme EcoR124I specificity subunit
T1 sequence (P10486 1-1038): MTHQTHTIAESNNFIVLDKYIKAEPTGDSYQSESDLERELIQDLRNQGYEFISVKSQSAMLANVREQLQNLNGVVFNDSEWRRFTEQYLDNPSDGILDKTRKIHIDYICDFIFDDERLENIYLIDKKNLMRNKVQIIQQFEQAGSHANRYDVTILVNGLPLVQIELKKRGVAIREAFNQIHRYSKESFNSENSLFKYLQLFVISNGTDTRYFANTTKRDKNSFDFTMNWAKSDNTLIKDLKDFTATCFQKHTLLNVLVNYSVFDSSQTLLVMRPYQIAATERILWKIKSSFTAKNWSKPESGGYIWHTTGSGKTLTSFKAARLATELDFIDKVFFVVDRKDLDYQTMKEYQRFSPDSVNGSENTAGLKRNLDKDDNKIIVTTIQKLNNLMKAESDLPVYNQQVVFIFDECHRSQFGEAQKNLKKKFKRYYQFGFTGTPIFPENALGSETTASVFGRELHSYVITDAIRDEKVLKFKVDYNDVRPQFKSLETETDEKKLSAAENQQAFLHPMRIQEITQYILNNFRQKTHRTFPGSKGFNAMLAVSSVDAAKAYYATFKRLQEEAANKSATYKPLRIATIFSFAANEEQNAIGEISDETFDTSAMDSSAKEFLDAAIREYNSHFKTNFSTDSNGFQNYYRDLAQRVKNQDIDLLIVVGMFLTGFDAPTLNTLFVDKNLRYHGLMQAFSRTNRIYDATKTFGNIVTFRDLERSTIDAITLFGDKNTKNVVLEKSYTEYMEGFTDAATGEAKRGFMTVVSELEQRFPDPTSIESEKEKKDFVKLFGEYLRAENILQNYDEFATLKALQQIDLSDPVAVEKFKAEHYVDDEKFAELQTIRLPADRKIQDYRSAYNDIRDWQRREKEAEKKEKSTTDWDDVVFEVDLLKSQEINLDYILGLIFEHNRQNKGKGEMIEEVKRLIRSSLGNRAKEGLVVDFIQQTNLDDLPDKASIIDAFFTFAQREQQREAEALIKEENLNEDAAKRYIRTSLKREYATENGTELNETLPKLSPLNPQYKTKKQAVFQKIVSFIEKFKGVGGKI
T1 sequence (P10485 1-404 partner): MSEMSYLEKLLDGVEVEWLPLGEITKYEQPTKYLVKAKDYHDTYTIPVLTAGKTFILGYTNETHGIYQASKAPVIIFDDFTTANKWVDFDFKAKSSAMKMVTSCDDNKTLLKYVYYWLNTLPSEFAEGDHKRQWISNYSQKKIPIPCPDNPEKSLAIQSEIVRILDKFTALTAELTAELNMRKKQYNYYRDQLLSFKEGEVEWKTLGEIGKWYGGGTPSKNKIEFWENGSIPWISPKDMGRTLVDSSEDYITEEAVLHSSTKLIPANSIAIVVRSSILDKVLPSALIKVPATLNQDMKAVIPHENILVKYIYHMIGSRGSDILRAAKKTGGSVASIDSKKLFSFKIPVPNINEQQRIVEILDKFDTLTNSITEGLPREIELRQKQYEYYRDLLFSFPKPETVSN
T1 sequence (P10484 1-520 partner): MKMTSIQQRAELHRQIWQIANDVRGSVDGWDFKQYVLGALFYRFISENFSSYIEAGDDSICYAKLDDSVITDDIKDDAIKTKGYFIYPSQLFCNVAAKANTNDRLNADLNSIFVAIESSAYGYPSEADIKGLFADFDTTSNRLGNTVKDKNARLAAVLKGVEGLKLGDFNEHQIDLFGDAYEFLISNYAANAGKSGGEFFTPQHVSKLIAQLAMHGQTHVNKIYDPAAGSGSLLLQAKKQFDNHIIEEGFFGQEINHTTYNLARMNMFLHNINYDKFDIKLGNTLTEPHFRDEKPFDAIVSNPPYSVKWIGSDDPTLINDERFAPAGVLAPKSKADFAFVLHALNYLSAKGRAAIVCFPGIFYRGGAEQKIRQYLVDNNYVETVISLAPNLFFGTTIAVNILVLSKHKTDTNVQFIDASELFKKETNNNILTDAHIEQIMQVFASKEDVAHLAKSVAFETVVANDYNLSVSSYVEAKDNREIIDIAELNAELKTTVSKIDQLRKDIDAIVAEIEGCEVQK
Assay: DNA-dependent ATPase, gamma-32P-ATP with TLC
Type: biochemical
Settings: 2 mM ATP; 15 nM methylase, 90 nM HsdR, 90 nM plasmid DNA; 10 mM MgCl2; pH 7.9; 37 C; turnover only; gamma-32P-ATP tracer

## Nc1ncnc2c1ncn2[C@@H]1O[C@H](COP(=O)(O)OP(=O)(O)OP(=O)(O)O)[C@@H](O)[C@H]1O [ATP]
  DNA-dependent ATPase, gamma-32P-ATP with TLC: The results for the WT enzyme reproduce its previously reported ATPase activity
